# According to paper PMC6423038, “Deferiprone: Pan-selective Histone Lysine Demethylase Inhibition Activity and Structure Activity Relationship Study” (Scientific Reports, 2019):
# Tests used:
# Assay in all cases: KDM cell-free assay (AlphaScreen, BPS Bioscience)
# [1] = target: KDM7B (PHF8) (Homo sapiens, UniProt Q9UPP1)
# [2] = target: KDM4D (JMJD2D) (Homo sapiens, UniProt Q6B0I6)
# [3] = target: T1, KDM6A (UTX) (Homo sapiens, UniProt O15550); type: biochemical; details: recombinant human KDM6A (UTX); read-out: IC50
# T1 construct: purchased BPS Bioscience
# [4] = target: KDM5A (Jarid1A) (Homo sapiens, UniProt P29375)
# [5] = target: KDM1A (LSD1) (Homo sapiens, UniProt O60341)
# [6] = target: KDM6B (JMJD3) (Homo sapiens, UniProt O15054)
# [7] = target: KDM3A (JMJD1A) (Homo sapiens, UniProt Q9Y4C1)
# [8] = target: T2, KDM4A (JMJD2A) (Homo sapiens, UniProt O75164); type: biochemical; details: recombinant human KDM4A (JMJD2A); max tested 25 μM
# T2 construct: purchased BPS Bioscience
# [9] = target: KDM7A (JHDM1D) (Homo sapiens, UniProt Q6ZMT4)
# [10] = target: KDM4B (JMJD2B) (Homo sapiens, UniProt O94953)
# [11] = target: KDM4E (JMJD2E) (Homo sapiens, UniProt B2RXH2)
# [12] = target: KDM4C (JMJD2C) (Homo sapiens, UniProt Q9H3R0)
# [13] = target: KDM5B (Jarid1B) (Homo sapiens, UniProt Q9UGL1)
# [14] = target: KDM3B (JMJD1B) (Homo sapiens, UniProt Q7LBC6)
# [15] = target: KDM5C (Jarid1C) (Homo sapiens, UniProt P41229)
# KDM5C (Jarid1C), sequence (P41229 whole entry): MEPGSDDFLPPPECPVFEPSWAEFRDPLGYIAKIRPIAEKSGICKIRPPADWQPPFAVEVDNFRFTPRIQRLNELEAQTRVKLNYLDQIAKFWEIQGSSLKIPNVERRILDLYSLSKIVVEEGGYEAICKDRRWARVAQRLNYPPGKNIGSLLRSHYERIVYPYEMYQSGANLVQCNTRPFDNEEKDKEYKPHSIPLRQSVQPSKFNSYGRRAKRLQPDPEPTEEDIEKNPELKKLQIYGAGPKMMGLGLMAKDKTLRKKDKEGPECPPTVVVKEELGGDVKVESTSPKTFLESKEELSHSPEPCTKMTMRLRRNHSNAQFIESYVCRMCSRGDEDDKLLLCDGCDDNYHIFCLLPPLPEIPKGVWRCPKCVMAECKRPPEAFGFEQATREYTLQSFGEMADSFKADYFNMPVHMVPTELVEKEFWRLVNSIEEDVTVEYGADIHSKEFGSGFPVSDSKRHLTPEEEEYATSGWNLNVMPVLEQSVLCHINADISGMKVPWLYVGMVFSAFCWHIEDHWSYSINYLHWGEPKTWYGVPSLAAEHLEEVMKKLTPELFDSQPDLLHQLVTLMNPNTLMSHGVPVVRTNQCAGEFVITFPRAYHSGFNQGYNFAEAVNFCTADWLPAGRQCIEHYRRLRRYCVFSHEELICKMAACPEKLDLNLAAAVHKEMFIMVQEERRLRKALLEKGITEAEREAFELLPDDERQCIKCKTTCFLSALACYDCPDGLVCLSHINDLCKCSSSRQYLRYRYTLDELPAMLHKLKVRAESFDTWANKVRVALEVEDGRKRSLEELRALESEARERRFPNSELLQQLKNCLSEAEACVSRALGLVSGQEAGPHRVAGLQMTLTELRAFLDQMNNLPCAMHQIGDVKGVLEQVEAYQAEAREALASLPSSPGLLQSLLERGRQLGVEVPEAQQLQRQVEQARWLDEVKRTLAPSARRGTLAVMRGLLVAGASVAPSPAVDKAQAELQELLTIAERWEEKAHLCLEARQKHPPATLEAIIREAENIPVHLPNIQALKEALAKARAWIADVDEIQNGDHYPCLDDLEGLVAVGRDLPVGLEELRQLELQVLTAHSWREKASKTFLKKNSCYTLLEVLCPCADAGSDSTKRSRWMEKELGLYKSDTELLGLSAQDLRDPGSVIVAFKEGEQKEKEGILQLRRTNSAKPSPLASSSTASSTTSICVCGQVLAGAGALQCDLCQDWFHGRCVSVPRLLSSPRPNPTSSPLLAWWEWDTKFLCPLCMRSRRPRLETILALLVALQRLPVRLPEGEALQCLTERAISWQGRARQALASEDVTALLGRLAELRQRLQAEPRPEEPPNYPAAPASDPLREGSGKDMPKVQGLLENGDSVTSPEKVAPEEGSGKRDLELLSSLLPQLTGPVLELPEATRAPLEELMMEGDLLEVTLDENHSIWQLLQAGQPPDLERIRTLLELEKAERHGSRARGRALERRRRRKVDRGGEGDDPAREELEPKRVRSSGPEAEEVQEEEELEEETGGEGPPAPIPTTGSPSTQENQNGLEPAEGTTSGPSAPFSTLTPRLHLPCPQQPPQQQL
# KDM3A (JMJD1A), sequence (Q9Y4C1 whole entry): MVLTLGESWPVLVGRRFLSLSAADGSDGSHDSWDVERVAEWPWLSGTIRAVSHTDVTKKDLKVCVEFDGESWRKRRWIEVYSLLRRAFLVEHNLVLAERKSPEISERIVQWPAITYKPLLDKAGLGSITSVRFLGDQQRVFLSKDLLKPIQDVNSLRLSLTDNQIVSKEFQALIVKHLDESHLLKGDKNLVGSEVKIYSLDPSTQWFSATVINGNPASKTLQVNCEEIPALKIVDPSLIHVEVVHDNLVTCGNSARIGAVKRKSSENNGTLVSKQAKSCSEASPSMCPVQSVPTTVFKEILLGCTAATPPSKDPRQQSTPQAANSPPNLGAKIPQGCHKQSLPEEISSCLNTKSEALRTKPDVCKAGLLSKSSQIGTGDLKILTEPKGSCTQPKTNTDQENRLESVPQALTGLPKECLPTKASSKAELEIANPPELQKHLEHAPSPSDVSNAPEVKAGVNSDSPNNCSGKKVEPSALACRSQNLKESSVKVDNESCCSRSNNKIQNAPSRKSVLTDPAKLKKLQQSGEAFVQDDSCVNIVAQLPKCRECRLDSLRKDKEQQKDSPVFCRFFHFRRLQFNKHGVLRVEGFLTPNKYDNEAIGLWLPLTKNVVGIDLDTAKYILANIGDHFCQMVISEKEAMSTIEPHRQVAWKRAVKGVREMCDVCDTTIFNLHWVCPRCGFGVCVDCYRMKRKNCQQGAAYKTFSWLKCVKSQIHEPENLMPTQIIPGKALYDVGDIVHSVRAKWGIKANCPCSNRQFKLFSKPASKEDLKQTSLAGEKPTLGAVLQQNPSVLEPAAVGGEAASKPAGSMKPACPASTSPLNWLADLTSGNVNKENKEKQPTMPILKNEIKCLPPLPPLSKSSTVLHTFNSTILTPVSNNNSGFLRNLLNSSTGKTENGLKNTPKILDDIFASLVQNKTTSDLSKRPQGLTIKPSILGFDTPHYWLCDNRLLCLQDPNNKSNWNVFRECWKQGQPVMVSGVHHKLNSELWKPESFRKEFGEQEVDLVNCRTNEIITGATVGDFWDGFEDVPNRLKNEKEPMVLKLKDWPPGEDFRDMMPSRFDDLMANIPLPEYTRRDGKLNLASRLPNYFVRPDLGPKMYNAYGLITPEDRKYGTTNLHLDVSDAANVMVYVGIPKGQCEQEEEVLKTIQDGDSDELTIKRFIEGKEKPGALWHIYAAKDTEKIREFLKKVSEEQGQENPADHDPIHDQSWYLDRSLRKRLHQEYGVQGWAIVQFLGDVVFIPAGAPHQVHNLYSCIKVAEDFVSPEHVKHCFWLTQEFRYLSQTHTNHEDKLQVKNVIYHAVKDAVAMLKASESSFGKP
# KDM7B (PHF8), sequence (Q9UPP1 whole entry): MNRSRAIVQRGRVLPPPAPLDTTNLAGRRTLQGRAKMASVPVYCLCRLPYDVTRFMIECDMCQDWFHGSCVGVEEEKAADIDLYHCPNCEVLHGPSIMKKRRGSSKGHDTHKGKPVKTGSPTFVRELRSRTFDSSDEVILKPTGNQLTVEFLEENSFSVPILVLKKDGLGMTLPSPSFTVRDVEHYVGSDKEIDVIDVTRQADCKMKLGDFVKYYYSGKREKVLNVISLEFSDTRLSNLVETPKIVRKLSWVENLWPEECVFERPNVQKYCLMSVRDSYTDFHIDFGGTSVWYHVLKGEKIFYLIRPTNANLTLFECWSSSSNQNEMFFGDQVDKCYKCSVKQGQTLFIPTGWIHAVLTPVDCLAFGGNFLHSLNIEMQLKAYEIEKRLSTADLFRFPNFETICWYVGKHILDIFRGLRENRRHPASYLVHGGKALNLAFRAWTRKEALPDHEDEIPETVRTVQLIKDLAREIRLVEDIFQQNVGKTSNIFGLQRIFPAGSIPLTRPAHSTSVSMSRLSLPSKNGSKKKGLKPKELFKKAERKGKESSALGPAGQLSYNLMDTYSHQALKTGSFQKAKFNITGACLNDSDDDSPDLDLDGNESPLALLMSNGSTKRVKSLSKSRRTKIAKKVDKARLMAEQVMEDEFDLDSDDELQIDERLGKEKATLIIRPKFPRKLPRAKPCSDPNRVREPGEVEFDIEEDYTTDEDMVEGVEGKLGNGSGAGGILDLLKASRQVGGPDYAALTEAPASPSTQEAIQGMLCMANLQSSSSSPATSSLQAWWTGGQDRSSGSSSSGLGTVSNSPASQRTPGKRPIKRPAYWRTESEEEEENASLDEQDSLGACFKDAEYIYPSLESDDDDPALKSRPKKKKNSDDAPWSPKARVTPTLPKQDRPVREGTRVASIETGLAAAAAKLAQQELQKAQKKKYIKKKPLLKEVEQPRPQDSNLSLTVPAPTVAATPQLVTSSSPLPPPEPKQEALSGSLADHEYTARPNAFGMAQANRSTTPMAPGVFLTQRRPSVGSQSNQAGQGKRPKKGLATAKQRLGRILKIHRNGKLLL
# T2 sequence (O75164 whole entry): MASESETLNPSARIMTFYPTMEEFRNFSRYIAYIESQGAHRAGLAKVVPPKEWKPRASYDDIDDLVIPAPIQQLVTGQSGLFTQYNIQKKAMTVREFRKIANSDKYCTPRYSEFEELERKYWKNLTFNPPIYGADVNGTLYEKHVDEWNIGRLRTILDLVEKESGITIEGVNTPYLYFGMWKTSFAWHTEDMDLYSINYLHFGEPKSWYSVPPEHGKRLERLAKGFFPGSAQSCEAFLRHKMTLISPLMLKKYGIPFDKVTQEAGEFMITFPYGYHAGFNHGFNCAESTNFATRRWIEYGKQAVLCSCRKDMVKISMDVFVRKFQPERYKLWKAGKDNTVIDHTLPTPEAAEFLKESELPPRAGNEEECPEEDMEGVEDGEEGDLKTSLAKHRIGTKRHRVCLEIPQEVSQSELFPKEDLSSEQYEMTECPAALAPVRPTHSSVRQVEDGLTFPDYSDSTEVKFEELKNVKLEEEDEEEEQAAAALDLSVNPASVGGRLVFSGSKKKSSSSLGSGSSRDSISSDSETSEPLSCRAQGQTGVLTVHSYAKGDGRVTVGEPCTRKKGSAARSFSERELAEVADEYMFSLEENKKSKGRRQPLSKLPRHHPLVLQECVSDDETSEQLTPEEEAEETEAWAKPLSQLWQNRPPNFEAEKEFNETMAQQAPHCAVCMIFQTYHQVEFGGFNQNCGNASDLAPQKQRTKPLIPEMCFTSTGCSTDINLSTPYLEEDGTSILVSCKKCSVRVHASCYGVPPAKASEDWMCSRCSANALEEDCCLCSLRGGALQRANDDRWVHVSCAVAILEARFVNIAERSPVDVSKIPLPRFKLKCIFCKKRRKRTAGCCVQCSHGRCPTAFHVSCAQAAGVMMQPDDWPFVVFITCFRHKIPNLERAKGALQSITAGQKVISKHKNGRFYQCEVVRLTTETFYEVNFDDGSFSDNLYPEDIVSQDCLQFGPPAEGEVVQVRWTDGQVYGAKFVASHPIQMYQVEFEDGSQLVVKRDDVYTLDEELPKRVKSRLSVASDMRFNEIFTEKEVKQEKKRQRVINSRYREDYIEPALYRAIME
structure (smiles),measurement,setting,value
"Cc1c(O)c(=O)ccn1C [DFP, Deferiprone]",IC50,[1],15.6 µM
same,IC50,[2],> 25 µM
same,IC50,[3],4.2 µM
same,IC50,[4],> 25 µM
same,IC50,[5],> 25 µM
same,IC50,[6],> 25 µM
same,IC50,[7],> 25 µM
same,IC50,[8],> 25 µM
same,IC50,[9],16.6 µM
same,IC50,[10],> 25 µM
same,IC50,[11],> 25 µM
same,IC50,[12],> 25 µM
same,IC50,[13],> 25 µM
same,IC50,[14],> 25 µM
same,IC50,[15],5.6 µM
